Experimental findings from patent US5202309A, “Antibiotic cyclopeptide fermentation product” (Merck & Co., Inc., priority 1991, dated 1993) are described below.

SMILES strings stand for the structures. Numbered stars: 1 amine (or outer) side, 2 acyl side, 3 side chain; on linkers, the order of the positions; unused ones are H or OH. Bridge positions count the residues as written; N and C are the ends. Square brackets hold non-standard residues; d marks the D form. Peptide text beside a SMILES is read from it. * marks the point of attachment. Orn(4R-OH,5R-OH) = O=C([C@H](C[C@@H](O)[C@@H](O)N[*:3])N[*:1])[*:2]; Tetradecanoyl(10R,12S-Me2) = CC[C@H](C)C[C@H](C)CCCCCCCCC(=O)*; hTyr(3S-OH,4S-OH) = N[C@H](C(=O)O)[C@H](O)[C@@H](O)c1ccc(O)cc1; Gln(3R-OH) = NC(=O)C[C@@H](O)[C@H](N)C(=O)O; Pro(3S-OH) = O=C(O)[C@H]1NCC[C@@H]1O; Hyp = O=C(O)[C@@H]1C[C@@H](O)CN1

Assay [1] relates to Candida albicans. The experiment in a line: Microbroth dilution assay in YNBD, minimum fungicidal concentration. Type of assay: cell-based. Particulars: then Sabouraud dextrose agar 24 hours at 28° C. As for the experimental part: (§1) The compounds were further diluted to 256 μg/ml in YNBD. […] After incubation, each culture was diluted in sterile water to yield a final concentration of 1-5×10^6 colony forming units (CFU)/ml.
In general terms: Broth dilution looks for growth in wells or tubes with falling amounts of substance.

Assay [2] concerns Candida parapsilosis. The description is as above. Type of assay: cell-based. The settings on record: Candida parapsilosis MY 1010, 35° C. 24 hours, then Sabouraud dextrose agar 24 hours at 28° C. The protocol: as §1

As to `CC[C@H](C)C[C@H](C)CCCCCCCCC(=O)N[C@H]1C[C@@H](O)[C@@H](O)NC(=O)[C@@H]2[C@@H](O)CCN2C(=O)[C@H]([C@H](O)CC(N)=O)NC(=O)[C@H]([C@H](O)[C@@H](O)c2ccc(O)cc2)NC(=O)[C@@H]2C[C@@H](O)CN2C(=O)[C@H]([C@@H](C)O)NC1=O` [Compound I, 1-[4,5-dihydroxy-N^2-(10,12-dimethyl-1-oxotetradecyl)ornithine]-5-(3-hydroxy-glutamine)-6-(3-hydroxyproline)echinocandin B] ({Tetradecanoyl(10R,12S-Me2)}-[Orn(4R-OH,5R-OH)]T[Hyp][hTyr(3S-OH,4S-OH)][Gln(3R-OH)][Pro(3S-OH)]; lactam 1-C), the “Minimum Fungicidal Concentration” value came to 0.5 µg/mL in assay [1] (Candida albicans MY 1208, 35° C. 24 hours); 0.5 µg/mL in assay [1] (Candida albicans MY 1783, 35° C. 24 hours); 8.0 µg/mL in assay [2].
